Results from patent EP0364819A2, “LHRH analogs” (The Administrators of The Tulane Educational Fund, priority 1988, dated 1990).
One block for each substance: values may come before it.

Tests used:
[1] = biological target: T1, membrane receptors of rat pituitary (Rattus norvegicus, UniProt P30969); test: Receptor binding to rat pituitary membranes with 125I-labeled [D-Trp6]LHRH; details: Table 1, agonistic analogues; high affinity binding sites; pituitary of male rats; ¹²⁵l-labeled [D-Trp⁶]LHRH
T1 construct: membrane receptors of rat pituitary; from tissue; host or cells: rat pituitary membranes
T1 sequence (P30969 1-327): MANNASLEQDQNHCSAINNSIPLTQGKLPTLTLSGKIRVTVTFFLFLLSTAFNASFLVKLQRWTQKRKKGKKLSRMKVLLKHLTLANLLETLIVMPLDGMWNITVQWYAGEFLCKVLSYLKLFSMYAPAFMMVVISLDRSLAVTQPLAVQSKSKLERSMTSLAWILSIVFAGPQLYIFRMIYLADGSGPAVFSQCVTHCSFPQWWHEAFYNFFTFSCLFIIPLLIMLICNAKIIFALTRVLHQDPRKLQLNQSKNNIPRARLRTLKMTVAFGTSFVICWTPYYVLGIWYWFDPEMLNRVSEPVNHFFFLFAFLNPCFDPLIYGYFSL
Protocol: (§1) This is determined by using labelled LHRH and [D-Trp⁶]LHRH. The assay is carried out similarly to that described by T. Kadar et al., Proc. Natl. Acad. Sci. USA, 85, 890-894 (1988).
(§2) Table 2 presents the antiovulatory activity of the claimed compounds having LHRH-inhibiting properties. The inhibitory action was determined in vivo, in 4-day cycling rats as described [A. Corbin and C. W. Beattie, Endocr. Res. Commun., 2, 1-23 (1975)]. Affinities of the claimed compounds to membrane receptors of rat pituitary and human breast cancer cells are also given in Tables 1 and 2 as determined by using [[…],D-Trp⁶]LHRH.

[2] = tested on: dispersed rat pituitary cell superfusion system; test: LH release in dispersed rat pituitary cell superfusion system (LHRH agonistic activity); assay type: cell-based; details: peptide infused for 3 minutes at various concentration; LH released compared to that released by 3 nM LHRH
Protocol: The ability of compounds to influence LH release in vitro is assayed by using a superfused rat pituitary cell system [S. Vigh and A. V. Schally, Peptides, 5 Suppl.
The peptide was infused for 3 minutes at various concentration, and the amount of LH released was compared to that released by 3 nM LHRH.

[3] = biological target: T2, membrane receptors of human breast cancer cells (Homo sapiens, UniProt P30968); test: Receptor binding to human breast cancer cell membranes with 125I-labeled [D-Trp6]LHRH; details: Table 1, agonistic analogues, high affinity binding sites, ¹²⁵l-labeled [D-Trp⁶]LHRH
T2 construct: human prostate and breast cancer cell membranes; endogenous in cells
T2 sequence (P30968 1-328): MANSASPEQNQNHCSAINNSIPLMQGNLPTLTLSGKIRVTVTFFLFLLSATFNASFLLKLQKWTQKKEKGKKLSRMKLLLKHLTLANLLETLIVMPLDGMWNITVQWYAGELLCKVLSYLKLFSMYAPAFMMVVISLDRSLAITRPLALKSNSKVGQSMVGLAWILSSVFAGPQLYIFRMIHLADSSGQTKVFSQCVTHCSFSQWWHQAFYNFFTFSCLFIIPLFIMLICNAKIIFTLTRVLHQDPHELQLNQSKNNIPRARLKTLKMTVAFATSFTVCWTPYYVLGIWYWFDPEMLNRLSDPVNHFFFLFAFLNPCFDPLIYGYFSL
Protocol: (c)Affinity for peptides to human prostate and breast cancer cell membranes.
as §1, §2

[4] = tested on: rat mammary tumor cell line MT-4; test: Inhibition of 3H-thymidine incorporation into DNA of MT-4 monolayer cultures; assay type: cell-based; details: for DPM/Well x1000: mean +/- standard error
Protocol: (d) Ability of peptides of Formula I to inhibit incorporation of [³H]thymidine into DNA of monolayer cultures the rat mammary tumor cell line MT-4
This is assayed as described [V. K. Sondak et al., Cancer Research, 44, 1725-1728 (1984); F. Holzel et al., J. Cancer Res. Clin. Oncol. 109, 217-226 (1985); M. Albert et al., J. Cancer Res. Clin. Oncol. 109, 210-216 (1985)].
To obtain information about the cytotoxic properties of the compounds, the inhibition of ³H-thymidine incorporation into DNA of monolayer cultures of the rat mammary tumor cell line MT-4 was studied. Experiments started with 100 K MT-4 cells/plate on day 0. Dose was changed 3 times, total incubation time with the sample was 5 days. 1µCu ³H-thymidine/ml was added on day 4.

[5] = DME Medium + 0% Serum (plus additives), Dose 1 ng/ml (6x10⁻¹⁰M)
[6] = DME Medium + 0% Serum (plus additives), Dose 10 ng/ml
[7] = DME Medium + 0% Serum (plus additives), Dose 100 ng/ml
[8] = DME Medium + 0% Serum (plus additives), Dose 1000 ng/ml
[9] = DME Medium + 0% Serum (plus additives), Dose 2000 ng/ml
[10] = DME Medium + 10% Serum, Dose 1 ng/ml (6x10⁻¹⁰M)
[11] = DME Medium + 10% Serum, Dose 10 ng/ml
[12] = DME Medium + 10% Serum, Dose 100 ng/ml
[13] = DME Medium + 10% Serum, Dose 1000 ng/ml
[14] = DME Medium + 10% Serum, Dose 2000 ng/ml

Substance: pGlu-His-Trp-Ser-Tyr-D-Lys[(Cu⁺⁺)(POL)₂(DL-A₂bu)]-Leu-Arg-Pro-Gly-NH₂ [XXV]
Binding affinity, Ka1, for membrane receptors of pituitary [1]: 6.405 nM⁻¹ | Hormonal activity* LH responses rel. to LHRH (= 1) [2]: 5.5 | Binding affinity, Ka1, for membrane receptors of cancer cells [3]: 3.141 nM⁻¹

Substance: pGlu-His-Trp-Ser-Tyr-D-Lys[(Cu⁺⁺)(POLP)₂(DL-A₂bu)]-Leu-Arg-Pro-Gly-NH₂ [Example XVI]
Binding affinity, Ka1, for membrane receptors of pituitary [1]: 9.751 nM⁻¹ | Hormonal activity* LH responses rel. to LHRH (= 1) [2]: 1.5 | Binding affinity, Ka1, for membrane receptors of cancer cells [3]: 5.038 nM⁻¹

Substance: pGlu-His-Trp-Ser-Tyr-D-Lys[(Cu⁺⁺)(SAL) 2(A₂pr)]-Leu-Arg-Pro-Gly-NH₂ [VIA]
Binding affinity, Ka1, for membrane receptors of pituitary [1]: 3.051 nM⁻¹ | Hormonal activity* LH responses rel. to LHRH (= 1) [2]: 12 | Binding affinity, Ka1, for membrane receptors of cancer cells [3]: 1.348 nM⁻¹

Substance: pGlu-His-Trp-Ser-Tyr-D-Lys[(Cu⁺⁺)(SAL) ₂(A₂pr)]-Leu-Arg-Pro-Gly-NH₂ [Example VII]
Binding affinity, Ka1, for membrane receptors of pituitary [1]: 7.968 nM⁻¹ | %Inhibition [4, 5]: 41% | DPM/Well x1000 [4, 5]: 249+/-30.5 DPM/Well x1000 | %Inhibition [4, 6]: 42% | DPM/Well x1000 [4, 6]: 242+/-32.1 DPM/Well x1000 | %Inhibition [4, 7]: 56% | DPM/Well x1000 [4, 7]: 186+/-13.2 DPM/Well x1000 | %Inhibition [4, 8]: 52% | DPM/Well x1000 [4, 8]: 204+/-40.9 DPM/Well x1000 | %Inhibition [4, 9]: 41% | DPM/Well x1000 [4, 9]: 249+/-45.1 DPM/Well x1000 | %Inhibition [4, 10]: 53% | DPM/Well x1000 [4, 10]: 48+/-8.6 DPM/Well x1000 | %Inhibition [4, 11]: 61% | DPM/Well x1000 [4, 11]: 40+/-6.7 DPM/Well x1000 | %Inhibition [4, 12]: 59% | DPM/Well x1000 [4, 12]: 42+/-10.4 DPM/Well x1000 | %Inhibition [4, 13]: 65% | DPM/Well x1000 [4, 13]: 36+/-5.1 DPM/Well x1000 | %Inhibition [4, 14]: 62% | DPM/Well x1000 [4, 14]: 39+/-4.6 DPM/Well x1000 | inhibition of ³H-thymidine incorporation into DNA ([4]; at a concentration of 6x10.⁻¹⁰ M, total incubation time 5 days): strong inhibitory effect | Hormonal activity* LH responses rel. to LHRH (= 1) [2]: 10 | Binding affinity, Ka1, for membrane receptors of cancer cells [3]: 3.589 nM⁻¹

Substance: pGlu-His-Trp-Ser-Tyr-D-Lys[(Cu⁺⁺)(SAL)₂(DL-A₂bu)]-Leu-Arg-Pro-Gly-NH₂ [XIV]
Binding affinity, Ka1, for membrane receptors of pituitary [1]: 5.589 nM⁻¹ | Hormonal activity* LH responses rel. to LHRH (= 1) [2]: 25 | Binding affinity, Ka1, for membrane receptors of cancer cells [3]: 1.628 nM⁻¹

Substance: pGlu-His-Trp-Ser-Tyr-D-Lys[(Ni⁺⁺)(SAL) 2(A₂pr)]-Leu-Arg-Pro-Gly-NH₂ [VIIIA]
Binding affinity, Ka1, for membrane receptors of pituitary [1]: 9.710 nM⁻¹ | Hormonal activity* LH responses rel. to LHRH (= 1) [2]: 12 | Binding affinity, Ka1, for membrane receptors of cancer cells [3]: 5.234 nM⁻¹

Substance: pGlu-His-Trp-Ser-Tyr-D-Lys[(Ni⁺⁺)(SAL)₂(D-A₂pr)]-Leu-Arg-Pro-Gly-NH₂ [VIIIB]
Binding affinity, Ka1, for membrane receptors of pituitary [1]: 6.457 nM⁻¹ | Hormonal activity* LH responses rel. to LHRH (= 1) [2]: 10 | Binding affinity, Ka1, for membrane receptors of cancer cells [3]: 3.334 nM⁻¹

Continued, in another order:

Binding affinity, Ka1, for membrane receptors of pituitary [1]: 3.285 nM⁻¹ | Binding affinity, Ka1, for membrane receptors of cancer cells [3]: 1.743 nM⁻¹
Substance: pGlu-His-Trp-Ser-Tyr-D-Lys[(PtCl₂)(DL-A₂pr)]-Leu-Arg-Pro-Gly-NH₂ [Example III]
Hormonal activity* LH responses rel. to LHRH (= 1) [2]: 55

Binding affinity, Ka1, for membrane receptors of pituitary [1]: 5.817 nM⁻¹ | Binding affinity, Ka1, for membrane receptors of cancer cells [3]: 3.005 nM⁻¹
Substance: pGlu-His-Trp-Ser-Tyr-D-Lys[Cu⁺⁺) POL)₂(DL-A₂pr)]-Leu-Arg-Pro-Gly-NH₂ [XVIII]
Hormonal activity* LH responses rel. to LHRH (= 1) [2]: 9

Binding affinity, Ka1, for membrane receptors of pituitary [1]: 8.676 nM⁻¹ | Binding affinity, Ka1, for membrane receptors of cancer cells [3]: 4.528 nM⁻¹
Substance: pGlu-His-Trp-Ser-Tyr-D-Lys[Cu⁺⁺)(POLP) ₂(A₂pr)]-Leu-Arg-Pro-Gly-NH₂ [XIX]
Hormonal activity* LH responses rel. to LHRH (= 1) [2]: 0.3
